Reference: patent publication US9688653B2, “Ethoxyphenyl thienyl compounds and methods for the treatment of bacterial infections” (Duke University, priority 2013, dated 2017)
Where “and” joins values, the source holds several entries; their conditions need not be identical. Identical values can stand only once. Entries after “also recorded” stand apart in the source; their conditions may differ. Like-named read-outs stand apart in the source and are kept apart here.

Tests used:
panel of 68 receptors [1] = target: panel of 68 receptors (Homo sapiens, UniProt Q01959); conditions: Transporter, Dopamine (DAT), hum, 10 μM
Chain of panel of 68 receptors (Homo sapiens, UniProt Q01959) (Q01959 whole entry): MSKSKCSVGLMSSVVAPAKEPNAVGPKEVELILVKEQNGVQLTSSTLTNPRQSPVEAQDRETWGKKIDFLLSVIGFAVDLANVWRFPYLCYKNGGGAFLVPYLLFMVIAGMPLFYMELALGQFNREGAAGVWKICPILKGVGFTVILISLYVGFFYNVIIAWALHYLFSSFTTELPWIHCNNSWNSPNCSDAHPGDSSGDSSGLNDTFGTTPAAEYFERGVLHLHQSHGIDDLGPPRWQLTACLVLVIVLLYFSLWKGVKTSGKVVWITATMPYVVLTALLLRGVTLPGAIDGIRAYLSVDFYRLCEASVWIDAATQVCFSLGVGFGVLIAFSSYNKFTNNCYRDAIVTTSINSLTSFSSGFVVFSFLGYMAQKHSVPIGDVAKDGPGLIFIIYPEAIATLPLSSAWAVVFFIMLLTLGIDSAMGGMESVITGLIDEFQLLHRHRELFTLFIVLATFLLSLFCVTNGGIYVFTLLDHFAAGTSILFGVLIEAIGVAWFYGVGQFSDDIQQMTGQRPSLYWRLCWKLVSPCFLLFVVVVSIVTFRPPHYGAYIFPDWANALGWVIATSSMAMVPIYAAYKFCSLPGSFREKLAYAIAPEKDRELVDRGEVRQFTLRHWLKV

panel of 68 receptors [2] = target: panel of 68 receptors (Homo sapiens, UniProt P21728); conditions: Dopamine D1, hum, 10 μM
Chain of panel of 68 receptors (Homo sapiens, UniProt P21728) (P21728 whole entry): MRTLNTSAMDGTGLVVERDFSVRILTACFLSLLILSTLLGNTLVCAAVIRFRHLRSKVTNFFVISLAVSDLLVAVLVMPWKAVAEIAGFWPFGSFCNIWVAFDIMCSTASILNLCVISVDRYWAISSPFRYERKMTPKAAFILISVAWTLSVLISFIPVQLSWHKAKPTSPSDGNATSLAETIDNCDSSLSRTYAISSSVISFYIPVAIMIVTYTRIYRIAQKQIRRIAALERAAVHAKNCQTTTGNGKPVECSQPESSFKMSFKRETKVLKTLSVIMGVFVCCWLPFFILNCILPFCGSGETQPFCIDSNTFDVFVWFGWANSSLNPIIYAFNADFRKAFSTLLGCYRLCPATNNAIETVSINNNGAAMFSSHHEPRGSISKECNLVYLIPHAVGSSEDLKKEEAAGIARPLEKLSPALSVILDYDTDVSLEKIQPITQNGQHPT

panel of 68 receptors [3] = target: panel of 68 receptors (Homo sapiens, UniProt P46098); conditions: Serotonin (5-Hydroxytryptamine) 5-HT3, hum, 10 μM
Chain of panel of 68 receptors (Homo sapiens, UniProt P46098) (P46098 24-478): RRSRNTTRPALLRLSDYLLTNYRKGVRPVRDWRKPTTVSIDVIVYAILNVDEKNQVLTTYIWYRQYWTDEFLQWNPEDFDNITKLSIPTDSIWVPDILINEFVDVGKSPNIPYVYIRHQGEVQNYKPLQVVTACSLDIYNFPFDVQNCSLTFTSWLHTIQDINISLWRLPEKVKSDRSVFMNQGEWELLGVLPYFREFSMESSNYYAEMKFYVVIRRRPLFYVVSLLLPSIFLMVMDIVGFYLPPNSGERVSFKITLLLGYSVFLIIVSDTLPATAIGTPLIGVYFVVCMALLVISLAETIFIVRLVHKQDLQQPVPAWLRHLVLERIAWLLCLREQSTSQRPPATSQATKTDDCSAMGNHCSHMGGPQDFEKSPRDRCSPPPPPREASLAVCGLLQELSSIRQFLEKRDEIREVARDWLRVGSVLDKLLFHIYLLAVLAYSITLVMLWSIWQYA

panel of 68 receptors [4] = target: panel of 68 receptors (Homo sapiens, UniProt P35372); conditions: Opiate μ(OP3, MOP), hum, 10 μM
Chain of panel of 68 receptors (Homo sapiens, UniProt P35372) (P35372 whole entry): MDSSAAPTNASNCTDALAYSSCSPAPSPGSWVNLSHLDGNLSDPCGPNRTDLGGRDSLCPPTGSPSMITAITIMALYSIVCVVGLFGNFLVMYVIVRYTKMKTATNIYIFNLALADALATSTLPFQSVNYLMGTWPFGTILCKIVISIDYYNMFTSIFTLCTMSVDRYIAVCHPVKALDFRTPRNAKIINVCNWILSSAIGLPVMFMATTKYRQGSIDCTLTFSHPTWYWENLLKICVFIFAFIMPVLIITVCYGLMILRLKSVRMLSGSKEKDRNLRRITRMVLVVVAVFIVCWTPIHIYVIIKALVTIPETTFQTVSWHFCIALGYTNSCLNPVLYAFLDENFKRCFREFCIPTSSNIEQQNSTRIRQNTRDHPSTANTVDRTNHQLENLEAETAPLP

panel of 68 receptors [5] = target: panel of 68 receptors (Homo sapiens, UniProt P46663); conditions: Bradykinin B1, hum, 10 μM
Chain of panel of 68 receptors (Homo sapiens, UniProt P46663) (P46663 whole entry): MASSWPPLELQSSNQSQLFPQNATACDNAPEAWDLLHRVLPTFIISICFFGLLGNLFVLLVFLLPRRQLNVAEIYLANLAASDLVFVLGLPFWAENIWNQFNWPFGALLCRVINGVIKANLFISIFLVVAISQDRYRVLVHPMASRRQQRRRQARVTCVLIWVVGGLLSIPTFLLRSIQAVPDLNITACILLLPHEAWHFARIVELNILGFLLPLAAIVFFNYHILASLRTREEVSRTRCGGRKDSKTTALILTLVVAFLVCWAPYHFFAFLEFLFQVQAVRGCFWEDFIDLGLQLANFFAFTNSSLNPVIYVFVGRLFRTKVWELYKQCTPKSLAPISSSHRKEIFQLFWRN

panel of 68 receptors [6] = target: panel of 68 receptors (Homo sapiens, UniProt P25103); conditions: Tachykinin NK1, hum, 10 μM
Chain of panel of 68 receptors (Homo sapiens, UniProt P25103) (P25103 whole entry): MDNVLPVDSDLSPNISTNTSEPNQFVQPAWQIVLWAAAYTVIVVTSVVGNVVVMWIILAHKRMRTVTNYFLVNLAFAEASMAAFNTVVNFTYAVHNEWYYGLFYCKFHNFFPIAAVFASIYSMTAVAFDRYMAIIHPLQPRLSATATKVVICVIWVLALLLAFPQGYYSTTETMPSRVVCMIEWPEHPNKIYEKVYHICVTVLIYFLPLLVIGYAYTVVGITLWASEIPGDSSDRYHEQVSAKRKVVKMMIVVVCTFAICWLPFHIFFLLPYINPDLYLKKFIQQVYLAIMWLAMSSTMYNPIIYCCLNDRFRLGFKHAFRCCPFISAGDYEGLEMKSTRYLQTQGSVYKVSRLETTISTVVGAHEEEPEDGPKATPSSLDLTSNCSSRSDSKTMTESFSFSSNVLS

panel of 68 receptors [7] = target: panel of 68 receptors (Homo sapiens, UniProt P41145); conditions: Opiate κ(OP2, KOP), hum, 10 μM
Chain of panel of 68 receptors (Homo sapiens, UniProt P41145) (P41145 whole entry): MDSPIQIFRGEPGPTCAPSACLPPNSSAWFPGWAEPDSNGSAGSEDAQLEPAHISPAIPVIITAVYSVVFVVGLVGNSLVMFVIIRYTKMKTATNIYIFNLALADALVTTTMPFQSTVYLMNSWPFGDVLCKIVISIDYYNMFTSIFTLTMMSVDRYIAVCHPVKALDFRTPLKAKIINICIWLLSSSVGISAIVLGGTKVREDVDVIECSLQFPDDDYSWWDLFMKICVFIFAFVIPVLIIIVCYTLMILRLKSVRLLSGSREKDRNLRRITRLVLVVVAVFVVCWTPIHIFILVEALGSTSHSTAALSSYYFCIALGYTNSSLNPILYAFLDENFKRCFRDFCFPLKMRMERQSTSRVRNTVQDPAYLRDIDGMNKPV

panel of 68 receptors [8] = target: panel of 68 receptors (Homo sapiens, UniProt P21554); conditions: Cannabinoid CB1, hum, 10 μM
Chain of panel of 68 receptors (Homo sapiens, UniProt P21554) (P21554 whole entry): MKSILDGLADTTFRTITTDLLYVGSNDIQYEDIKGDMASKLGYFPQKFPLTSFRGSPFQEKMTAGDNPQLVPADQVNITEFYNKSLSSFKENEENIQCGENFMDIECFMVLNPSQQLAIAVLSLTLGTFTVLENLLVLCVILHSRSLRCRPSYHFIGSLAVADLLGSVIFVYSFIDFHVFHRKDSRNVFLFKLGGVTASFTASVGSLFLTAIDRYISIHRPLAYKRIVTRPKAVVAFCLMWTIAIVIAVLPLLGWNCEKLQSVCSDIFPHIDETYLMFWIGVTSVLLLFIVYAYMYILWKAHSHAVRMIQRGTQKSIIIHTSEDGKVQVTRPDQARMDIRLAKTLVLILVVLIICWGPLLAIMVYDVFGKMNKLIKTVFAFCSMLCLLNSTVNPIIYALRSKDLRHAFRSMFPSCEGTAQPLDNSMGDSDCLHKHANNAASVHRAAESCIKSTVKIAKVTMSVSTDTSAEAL

panel of 68 receptors [9] = target: panel of 68 receptors (Homo sapiens, UniProt P48039); conditions: Melatonin MT1, hum, 10 μM
Chain of panel of 68 receptors (Homo sapiens, UniProt P48039) (P48039 whole entry): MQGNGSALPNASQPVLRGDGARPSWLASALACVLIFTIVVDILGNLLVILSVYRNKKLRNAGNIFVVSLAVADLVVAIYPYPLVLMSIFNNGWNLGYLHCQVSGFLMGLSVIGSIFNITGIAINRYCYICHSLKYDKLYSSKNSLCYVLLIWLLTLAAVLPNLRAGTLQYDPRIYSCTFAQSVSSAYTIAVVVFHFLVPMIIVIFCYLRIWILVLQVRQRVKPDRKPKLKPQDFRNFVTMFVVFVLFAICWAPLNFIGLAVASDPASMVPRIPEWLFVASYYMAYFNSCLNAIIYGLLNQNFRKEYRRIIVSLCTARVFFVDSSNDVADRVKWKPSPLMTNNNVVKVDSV

K1 capsule of UTI89 = assay: Secondary assay 3: orcinol assay for released K1 capsule polysaccharide; format: cell-based, Escherichia coli
Description: E. Secondary Assay 3: Orcinol Secondary Screening for Inhibitors of Bacterial Capsule Biogenesis.
Purpose: This assay was performed only on the probe candidate. […] The biochemical determination of cell-surface associated capsule was performed using UTI89 or the Delta Region I and Delta Region II capsule mutant bacterial strains.
Purpose: This assay was performed only on the probe candidate. […] The biochemical determination of cell-surface associated capsule was performed using UTI89 or the delta Region I and Region II capsule mutant bacterial strains.
Assay Description: The biochemical measurement of cell-surface associated capsule was performed. UTI89 or capsule mutants were grown in culture tubes with and without the test compound (50 μM). The cultures were centrifuged, and the cell pellets were washed in PBS and resuspended in Tris buffer, pH5. […] Released polysaccharide was harvested by separation from whole bacteria by centrifugation followed by deproteination with phenol/chloroform and precipitation with ethanol. The precipitated material was subjected to acid hydrolysis (pH 2 at 80° C. for 1 hr) and incubated with orcinol, which reacts with periodic intermediates to produce a violet color quantified at OD 570 (3) Inhibitors reducing or abrogating surface encapsulation yielded low orcinol levels similar to the capsule export and synthesis mutants (Region I and II). The positive control drug C7 (100 μM final well concentration) was used in this screen.
Endpoint Read: The samples were read at ambient temperature from the bottom for absorbance at A570 in a BioTek Quantplate reader and the degree of orcinol-reactive material was determined based on the absorbance compared to a wild-type encapsulated strain (UTI89) and a standard curve using purified sialic acid.
Orcinol assay for released capsule material. Orcinol reactivity was used as a biochemical confirmation of altered extracellular capsule after compound treatment. UTI89 or an isogenic capsule mutant was grown in 100 μM of test compound or 1% DMSO. The assay was performed as previously described. The molecule C7 (100 μM final concentration) was used as a positive control. The assay was performed 3 times with replicate samples.

[10] = Solubility in PBS and in assay media; format: physicochemical
Description: Solubility was measured in phosphate buffered saline (PBS) at room temperature (23° C.). PBS by definition is 137 mM NaCl, 2.7 mM KCl, 10 mM sodium phosphate dibasic, 2 mM potassium phosphate monobasic and a pH of 7.4 (34). […] Solubility was also assessed in primary assay media (Luria-Bertani Broth). […] The solubility in PBS buffer is good, and only slightly less than in assay media, and, in any case, the solubility for the probe is well above its activity in the K1 and T7 assays.

E. coli UTI89 = assay: Murine UPEC sepsis model; format: in vivo
Description: Murine UPEC sepsis model and treatment with DU011. Groups of five 6-7 week old C57BL/6NCr female mice (purchased from Frederick National Laboratory for Cancer Research) were injected subcutaneously twice daily with 100 μL of 1% DMSO (vehicle control) or DU011 (1 mg/ml) starting 12 hrs prior to the intra peritoneal infection. Weights were recorded twice daily to monitor health of the animals and tolerance to the compound. Mice were challenged by intraperitoneal injection with 10^8 CFU of the indicated E. coli UTI89 in 100 μL of PBS. Briefly, cultures were prepared by diluting overnight cultures (18 hrs) 1:100 into 3 mL of LB supplemented with 1% DMSO final or 100 μM DU011 (1% DMSO final). Shaken cultures were grown at 37° C. for 6 hours to an OD600 of 1.2, and then cells were pelleted and resuspended in 1 mL of PBS. Absorbance was adjusted to OD600 of 0.8 in PBS, and the cultures were then diluted 1:10 in sterile PBS Animals were also given an intraperitoneal dose of 1% DMSO or DU011, in a site different than the administration of bacteria, to ensure sufficient systemic delivery of drug. Animal survival was assessed after 12 hours. Surviving mice were re-dosed according to the treatment groups and continued to be monitored. The experiment was concluded 48 hours post infection. The entire experiment was repeated with similar results.
Throughout each experiment, animals were monitored each 6 hours from the time of infection until conclusion for serious morbidity, including ruffled fur, decreased activity, slowed respirations, and ill appearance. Animals were provided gel packs for easily accessible additional hydration throughout the experiments. When a moribund state was suspected or anticipated by these criteria, animals were immediately euthanized to minimize potential pain and/or suffering. Of the total animals with an outcome categorized as death, the following numbers were euthanized for terminal morbidity prior to septic death (euthanized/total deaths): 3/10, no prior treatment; 3/5 prior chemical treatment of bacteria alone; 0/2 prior chemical treatment of mice alone. Euthanasia for all animals was through complete respiratory cessation using the inhaled anesthetic isoflurane followed by secondary assurance of death using bilateral thoracotomy. All animal experiments were conducted with prior approval from the Institutional Animal Care and Use Committee of Duke University.

[11] = pre-treatment of bacteria without pretreatment of the mice

CCOc1ccc(-c2cc(NC(=O)c3c(F)cccc3F)c(C(=O)O)s2)cc1 [KUC107784N-02]
% Inh. (panel of 68 receptors [1]): 8%
% Inh. (panel of 68 receptors [2]): 5%
% Inh. (panel of 68 receptors [3]): −11%
% Inh. (panel of 68 receptors [4]): 3%
% Inh. (panel of 68 receptors [5]): 3%
% Inh. (panel of 68 receptors [6]): 7%
% Inh. (panel of 68 receptors [7]): 14%
% Inh. (panel of 68 receptors [8]): 13%
% Inh. (panel of 68 receptors [9]): 3%

CCOc1ccc(-c2cc(NC(=O)c3c(F)cccc3F)c(C(=O)O)s2)cc1 [ML317, 3-(2,6-difluorobenzamido)-5-(4-ethoxyphenyl)thiophene-2-carboxylic acid]
Bacterial capsule-dependent orcinol stain, % of the control sample (K1 capsule of UTI89): 21%
Reduction of orcinol-reactive polysaccharides on surface of bacteria (K1 capsule of UTI89; 100 μM, K1 strain UTI89): ~80%
Orcinol assay, % of control value (K1 capsule of UTI89; synthesized sample, SID 126497311): Orcinol assay 21%
solubility ([10]; Luria-Bertani broth (primary assay media), plasma or biological fluid, Luria-Bertani broth, read-out: Assay Media Solubility): 68 µg/mL and 169 µM
solubility ([10]; phosphate buffered saline (PBS), 23 °C, pH 7.4, aqueous buffer, 1x PBS, pH 7.4, room temperature, read-out: Aqueous Solubility): 92.6 µg/mL and 230 µM
Tolerability in mice (E. coli UTI89; 100 μL of 1 mg/ml subcutaneously twice daily, listed as DU011): without evident side effects; also recorded: no detectable adverse effects
Body weight (E. coli UTI89; [11]): ongoing weight loss
Survival (E. coli UTI89; [11]): 50%
Body weight (E. coli UTI89; pretreatment of the bacteria and mice with DU011): recovery of pre-infection weights
Survival (E. coli UTI89; pretreatment of the bacteria and mice with DU011, 10^8 CFU UTI89 intraperitoneal, 48 hrs): 100%
Body weight (E. coli UTI89; subcutaneous DU011 and untreated UTI89): stabilization of weights
Survival (E. coli UTI89; subcutaneous DU011 and untreated UTI89, 48 hrs): 80%
